Legend:
[1] = system: adrenal arrhythmia (extrasystole) in rats; assay: Model of adrenal arrhythmia (extrasystole) in rats; type: in vivo
Source text: One of the most important factors of arrhythmogenesis and the appearance of extrasystoles is the activation of the sympathoadrenal system. This circumstance determined the necessity of investigating phenylcreatine, proposed by the author of the present invention, on the model of adrenal arrhythmia (extrasystole) in rats (Kushakovsky M S, Heart arrhythmias: a guide for physicians, St. Petersburg, Hippocrates 1992).
In a control series of experiments, in all animals, 12 seconds after injection of epinephrine hydrochloride at a dose of […], polytopic ventricular extrasystole occurred in all animals. The number of ventricular extrasystoles before transition to tachycardia averaged 32±6. The duration of such arrhythmias was 80±21 seconds. In 50% of cases, it passed into the ventricular tachycardia. The duration of tachycardia was, on average, 86±12 seconds.
With the introduction of phenylcreatine, proposed by the present inventor in an amount of 20 mg per animal, half an hour before adrenaline hydrochloride, the number of ventricular extrasystoles was 12±4. The duration of the arrhythmia was 60±14 seconds.

[2] = Negative effects in all the studies conducted; type: in vivo
Source text: It should also be noted that, with all the studies conducted, the negative effects of phenylcreatine according to the invention were not detected, which indicates its safety.

[3] = system: white mongrel mice; assay: Endurance of mice in the treadmill test (running to complete exhaustion); type: in vivo
[4] = system: untrained subjects; settings: creatine in combination with carbohydrates, 5 days before and 14 days after training; cited from earlier work
[5] = system: craniocerebral trauma in rats and mice; settings: cited from earlier work

SMILES | Number of ventricular extrasystoles ([1]; 20 mg per animal half an hour before adrenaline hydrochloride, control 32±6) | Duration of the arrhythmia ([1]; 20 mg per animal half an hour before adrenaline hydrochloride, control 80±21) [s] | Transition to tachycardia ([1]; 20 mg per animal, control 50% of cases) | Negative effects [2] | Effect on endurance in the absence of sleep [3] | Isokinetic muscle strength, greater than with carbohydrates only [4] [%] | Isometric muscle strength, greater than with carbohydrates only [4] [%] | Subsequent injuries ([5]; dietary consumption of 1% creatine for four weeks) | Reduction of the severity of craniocerebral trauma ([5]; injections of creatine 3 g/kg for up to five days before trauma)
N=C(N)N(CC(=O)O)Cc1ccccc1 [phenylcreatine, N-benzyl-N-carbamimidoylglycine] | 12±4 | 60 ± 14 | no transition to tachycardia | not detected | persisted even in the absence of sleep |  |  |  | 
CN(CC(=O)O)C(=N)N [creatine, 2-(methylguanine)-ethane acid] |  |  |  |  |  | 10 | 21 | halved | 3-36%
